Data from patent publication US20240066003A1, “NEURODEVELOPMENTAL DISORDER THERAPY” (Anavex Life Sciences Corp., priority 2016, published 2024).

Experiments:
[1] = test system: heterozygous MECP2knockout mice (HET); assay: Rotarod; type: in vivo
Experimental: Studies employed wild type (WT) mice and heterozygous MECP2knockout mice (HET) All mice were provided by Jackson Laboratory, Bar Harbor, Maine. HET mice were Bird mice (Jackson Laboratories, Bar Harbor, ME, B6.129P2(C)-Mecp2^tm1.1Bird/Stock Number: 003890) were obtained by crossing het females with wild type (WT) males (C57B/6J). […] Mecp2 females testing at ˜8 and ˜12 weeks of age WT—vehicle (0.25% MC/dH2O) HET—vehicle (0.25% MC/dH2O) HET—A2-733 (10 mg/kg) HET—A2-733 (30 mg/kg) Chronic dosing (p.o.) daily, starting at ˜5.5 weeks of age and continuing through the 12-week behavioral testing time point 60 min pre-treatment during behavioral testing. The rotarod performance test is a performance test based on a rotating rod with forced motor activity being applied, usually by a rodent. The test measures parameters such as riding time (seconds) or endurance. Some of the functions of the test include evaluating balance, grip strength, and motor coordination of the subjects; especially in testing the effect of experimental drugs or after traumatic brain injury. Mice are placed on the rotarod apparatus (PsychoGenics, Tarrytown New York) consisting of a rod that rotates at a constant or variable and accelerating speed of 4 rpm. Once a mouse loses its balance and falls onto an underlying platform the timer automatically stops. Mice are exposed to the apparatus for 5 min training at a constant speed and placed back on the rod after each fall. After a rest period of at least 1 hr. animals are placed back on the rotarod apparatus for testing. Once all animals in a test session are loaded on the rod, the rotarod apparatus is placed on accelerating speed (0-40 rpm) over 5 min and the time until the first fall is recorded. The test is repeated three consecutive times per animal. For each test session, the RPM score at time of fall off the rod are recorded.

[2] = test system: heterozygous MECP2knockout mice (HET); assay: Clasping of hind legs; type: in vivo; settings: 8 weeks of age; 30 mg/kg p.o. daily
Experimental: Studies employed wild type (WT) mice and heterozygous MECP2knockout mice (HET) All mice were provided by Jackson Laboratory, Bar Harbor, Maine. HET mice were Bird mice (Jackson Laboratories, Bar Harbor, ME, B6.129P2(C)-Mecp2^tm1.1Bird/Stock Number: 003890) were obtained by crossing het females with wild type (WT) males (C57B/6J). […] Mecp2 females testing at ˜8 and ˜12 weeks of age WT—vehicle (0.25% MC/dH2O) HET—vehicle (0.25% MC/dH2O) HET—A2-733 (10 mg/kg) HET—A2-733 (30 mg/kg) Chronic dosing (p.o.) daily, starting at ˜5.5 weeks of age and continuing through the 12-week behavioral testing time point 60 min pre-treatment during behavioral testing. Mice are lifted gently by the tail with front limbs remaining on surface. Clasping of hind legs is noted (normal is a spread in the hind legs).

[3] = test system: heterozygous MECP2knockout mice (HET); assay: Startle/PPI; type: in vivo
Experimental: Studies employed wild type (WT) mice and heterozygous MECP2knockout mice (HET) All mice were provided by Jackson Laboratory, Bar Harbor, Maine. HET mice were Bird mice (Jackson Laboratories, Bar Harbor, ME, B6.129P2(C)-Mecp2^tm1.1Bird/Stock Number: 003890) were obtained by crossing het females with wild type (WT) males (C57B/6J). […] Mecp2 females testing at ˜8 and ˜12 weeks of age WT—vehicle (0.25% MC/dH2O) HET—vehicle (0.25% MC/dH2O) HET—A2-733 (10 mg/kg) HET—A2-733 (30 mg/kg) Chronic dosing (p.o.) daily, starting at ˜5.5 weeks of age and continuing through the 12-week behavioral testing time point 60 min pre-treatment during behavioral testing. The acoustic startle measures an unconditioned reflex response to external auditory stimulation. Mice are placed in the prepulse inhibition (PPI) chambers for a 5 min session of white noise (70 dB) habituation. Then the session starts with a habituation block of 6 presentations of the startle stimulus alone, followed by 10 PPI blocks of 6 different types of trials [null (no stimuli), startle (120 dB), startle plus prepulse (4, 8 and 12 dB over background noise i.e. 74, 78 or 82 dB) and prepulse alone (82 dB)] presented at random within each block. The amount of inhibition of the normal startle is determined and expressed as a percentage of the basic startle response (from startle alone trials), excluding the startle response of the first habituation block.

[4] = test system: Rett syndrome; assay: Example 2 cardiac pulse rate in Rett syndrome patient; type: in vivo, human; settings: person, oral 20 mg daily for 5 days
Description: A person presents with Rett syndrome. Their real time cardiac pulse rate is monitored. Prior to commencing therapy, their heart rate is 49 beats per minute with substantial variability.

[5] = test system: muscarinic acetylcholine receptors; settings: believed to bind; cited from earlier work
[6] = 8 weeks of age, 10 and 30 mg/kg p.o. daily, HET mice
[7] = 12 weeks of age, both doses (10 and 30 mg/kg p.o. daily)

SMILES: CN(C)CC1CCOC1(c1ccccc1)c1ccccc1.Cl (centres unmarked) [A2-73, tetrahydro-N,N-dimethyl-2,2-diphenyl-3-furanmethanamine hydrochloride]
- rotarod speed at fall, treatment effect [1, 6]: No significant treatment effects
- rotarod time to fall, treatment effect [1, 6]: No significant treatment effects
- rotarod speed at fall vs vehicle-treated mutant mice [1, 7]: fell at higher speeds
- rotarod time to fall vs vehicle-treated mutant mice [1, 7]: took more time to fall off the rod
- rotarod speed at fall, without outliers ([1]; 12 weeks of age, higher dose (30 mg/kg), outliers removed): effect at the higher dose disappeared
- clasping vs vehicle-treated mutant mice [2]: clasped less
- PPI, treatment differences ([3]; 8 weeks of age): No treatment differences
- startle response vs vehicle-treated mutant mice ([3]; 8 weeks of age, 30 mg/kg p.o. daily): increased startle response
- startle response vs vehicle-treated mutant mice, outliers removed ([3]; 12 weeks of age, 30 mg/kg, outliers removed, p<0.01): increased startle
- startle response, treatment effect ([3]; 12 weeks of age, all data, p<0.08): trend of a treatment effect
- PPI treatment interaction, post hoc ([3]; 12 weeks of age, interaction p<0.05): did not reveal any significant post hoc differences
- heart rate variability [4]: variability is reduced
- average heart rate ([4]; 49 beats per minute before therapy): 75 beats per minutes
- affinity for muscarinic acetylcholine receptors [5]: low micromolar range
